According to PubChem BioAssay AID328 (DTP/NCI, 2004):
“And” between values parts separate entries of the source, which are not always exact repeats. Equal entries are not always repeated. Toxic doses and inconclusive results are not listed.

System: BDF1 mice, P388 leukemia ip, median survival T/C
Assay: NCI In Vivo Anticancer Drug Screen. Data for tumor model P388 Leukemia (intraperitoneal) in B6D2F1 (BDF1) mice
Conditions: endpoint: median survival time, higher = longer survival
Procedure, shortened: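 Transplantable tumour in mice; compound vs vehicle dosing; survival scored; ratio of treated to control reported.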

[1] = dose: 100.0 mg/kg/injection, schedule: Q04DX003 (ip), vehicle: saline
[2] = dose: 1.0 mg/kg/injection, schedule: Q01DX009 (ip), vehicle: saline
[3] = dose: 150.0 mg/kg/injection, schedule: Q01DX009 (ip), vehicle: saline with Tween-80

Cc1cccc(=O)n1CCC#N
T/C [1]: 96 % of control | T/C (dose: 200.0 mg/kg/injection, schedule: Q04DX003 (ip), vehicle: saline): 96 % of control | T/C (dose: 400.0 mg/kg/injection, schedule: Q04DX003 (ip), vehicle: saline): 100 % of control

CCOC(=O)C(C)[P+](c1ccccc1)(c1ccccc1)c1ccccc1 (stereo not given)
T/C [2]: 115 % of control | T/C (dose: 1.5 mg/kg/injection, schedule: Q01DX009 (ip), vehicle: saline): 103 % of control | T/C (dose: 1.5 mg/kg/injection, schedule: Q04DX003 (ip), vehicle: saline): 90 % of control | T/C (dose: 2.25 mg/kg/injection, schedule: Q01DX009 (ip), vehicle: saline): 100 % of control | T/C (dose: 3.0 mg/kg/injection, schedule: Q01DX009 (ip), vehicle: saline): 118 % of control | T/C (dose: 3.0 mg/kg/injection, schedule: Q04DX003 (ip), vehicle: saline): 104 % of control | T/C (dose: 6.0 mg/kg/injection, schedule: Q04DX003 (ip), vehicle: saline): 90 % of control

c1ccc(C2C3(c4ccccc4)C4(c5ccccc5)OC(c5ccccc5)(c5ccccc54)C23c2ccccc2)cc1 (stereo not given)
T/C (dose: 50.0 mg/kg/injection, schedule: Q01DX009 (ip), vehicle: Klucel (hydroxypropylcellulose) (HPC)): 91 % of control | T/C (dose: 100.0 mg/kg/injection, schedule: Q01DX009 (ip), vehicle: Klucel (hydroxypropylcellulose) (HPC)): 103 % of control | T/C (dose: 200.0 mg/kg/injection, schedule: Q01DX009 (ip), vehicle: Klucel (hydroxypropylcellulose) (HPC)): 92 % of control

COC(C(=O)C(O)C(C)O)C1Cc2cc3cc(OC4CC(OC5CC(O)C(O)C(C)O5)C(O)C(C)O4)c(C)c(O)c3c(O)c2C(=O)C1OC1CC(OC2CC(O)C(OC3CC(C)(O)C(O)C(C)O3)C(C)O2)C(O)C(C)O1 (stereo not given)
T/C (dose: 0.03 mg/kg/injection, schedule: Q01DX009 (ip), vehicle: saline): 101 % of control | T/C (dose: 0.06 mg/kg/injection, schedule: Q01DX009 (ip), vehicle: saline): 106 % of control | T/C (dose: 0.13 mg/kg/injection, schedule: Q04DX003 (ip), vehicle: saline): 98 % of control | T/C (dose: 0.25 mg/kg/injection, schedule: Q01DX009 (ip), vehicle: saline): 150 % of control | T/C (dose: 0.25 mg/kg/injection, schedule: Q04DX003 (ip), vehicle: saline): 107 % of control | T/C (dose: 0.5 mg/kg/injection, schedule: Q01DX009 (ip), vehicle: saline): 170 % of control | T/C (dose: 0.5 mg/kg/injection, schedule: Q04DX003 (ip), vehicle: saline): 101 % of control | T/C [2]: 120 % of control

Cc1ccc(NCc2nc(N)nc(Nc3ccc(C)cc3)n2)cc1
T/C (dose: 50.0 mg/kg/injection, schedule: Q01DX001 (ip), vehicle: saline sonified): 100 % of control | T/C (dose: 100.0 mg/kg/injection, schedule: Q01DX001 (ip), vehicle: saline sonified): 100 % of control | T/C (dose: 200.0 mg/kg/injection, schedule: Q01DX001 (ip), vehicle: saline sonified): 90 % of control

CC=C(/C(=C/C)c1ccc(O)cc1)c1ccc(O)cc1
T/C (dose: 66.0 mg/kg/injection, schedule: Q01DX009 (ip), vehicle: saline with Tween-80): 100 % of control | T/C (dose: 100.0 mg/kg/injection, schedule: Q01DX009 (ip), vehicle: saline with Tween-80): 109 % of control | T/C [3]: 118 % of control

C(COCC1CO1)OCC1CO1 (stereo not given)
T/C (dose: 25.0 mg/kg/injection, schedule: Q01DX009 (ip), vehicle: saline): 154 % of control and 165 % of control | T/C (dose: 25.0 mg/kg/injection, schedule: Q04DX003 (ip), vehicle: saline): 108 % of control | T/C (dose: 50.0 mg/kg/injection, schedule: Q01DX009 (ip), vehicle: saline): 168 % of control and 185 % of control | T/C (dose: 50.0 mg/kg/injection, schedule: Q04DX003 (ip), vehicle: saline with Tween-80): 160 % of control | T/C (dose: 100.0 mg/kg/injection, schedule: Q01DX009 (ip), vehicle: saline): 209 % of control | T/C (dose: 100.0 mg/kg/injection, schedule: Q04DX003 (ip), vehicle: saline with Tween-80): 165 % of control | T/C [1]: 154 % of control

CC(C)CC(NC(=O)C(O)C(N)Cc1ccccc1)C(=O)O (stereo not given)
T/C (dose: 37.5 mg/kg/injection, schedule: Q01DX009 (ip), vehicle: saline with Tween-80): 94 % of control and 98 % of control | T/C (dose: 75.0 mg/kg/injection, schedule: Q01DX009 (ip), vehicle: saline with Tween-80): 95 % of control and 98 % of control | T/C [3]: 95 % of control and 100 % of control

CC(=O)O[C@@H]1C[C@@]2(C)[C@@H]3CC=C4[C@@H](C[C@H](O)C(=O)C4(C)C)[C@]3(C)C(=O)C[C@]2(C)[C@H]1[C@@](C)(O)C(=O)/C=C/C(C)(C)OC(C)=O
T/C (dose: 12.5 mg/kg/injection, schedule: Q01DX010 (ip), vehicle: carboxymethylcellulose (CMC)): 109 % of control | T/C (dose: 25.0 mg/kg/injection, schedule: Q01DX010 (ip), vehicle: carboxymethylcellulose (CMC)): 122 % of control | T/C (dose: 50.0 mg/kg/injection, schedule: Q01DX010 (ip), vehicle: carboxymethylcellulose (CMC)): 95 % of control
